From US5336672A, “Increasing egg production in poultry” (Board of Supervisors of Louisiana State University and …, priority 1992, dated 1994)
Where two headings read alike, the source gives them in different places.

How the values were obtained:
[1] = tested on: laying hen; conditions: Jensen et al. 1978; cited from earlier work
[2] = tested on: turkey poults; conditions: Steele et al. 1979; Rosebrough et al. 1981; may depend on Cr (III) in an organic form; cited from earlier work
[3] = tested on: turkey breast tissue; conditions: supplemental Cr; Anderson et al. 1989; cited from earlier work
[4] = tested on: adult men; conditions: Cr supplementation; cited from earlier work
[5] = tested on: rabbits; conditions: cited from earlier work
[6] = tested on: laying hens; conditions: dietary; Jensen et al. 1980; cited from earlier work
[7] = tested on: rats; conditions: 200 mg/kg picolinic acid in diet; cited from earlier work
[8] = tested on: swine; conditions: Hill et al. 1986; cited from earlier work
[9] = tested on: laying hens; assay: Egg production, Example 1 (28-day feeding trial, hens 32-36 weeks of age); assay type: in vivo, Hyline 36 commercial-type laying hens; conditions: for Egg Production: 28 days, mean of 10 replicates, SEM 2.7, chromium cubic effect P < .03
Excerpt: (§1) Hyline 36 commercial-type laying hens were taken from the Louisiana State University Agricultural Center Poultry Unit. The hens were 32-36 weeks of age during the 28 days of the trial. A randomized complete block design was used, and the hens were blocked on location in the barn. Hens were penned individually in cages (0.30×0.41 m) in an open front building. Each of the six treatments described below was replicated ten times, with one hen per replicate. The hens were fed a corn-soybean meal laying hen basal diet for one week. The composition of the diet is set forth in Table 1, and was formulated to meet or exceed the requirements for all nutrients as stated in "Nutrient Requirements of Poultry," National Research Council (1984). The hens were then randomly allotted to a treatment, and were fed the experimental diets during a 28-day trial. The following treatments were used: (1) Corn-soybean meal basal (B), (2) B+50 ppb Cr, (3) B+100 ppb Cr, (4) B+200 ppb Cr, (5) B+400 ppb Cr, and (6) B+800 ppb Cr. Cromium was administered as chromium picolinate. Treatment diets and water were provided on an ad libitum basis.
(§2) Egg production was recorded daily, and eggs were collected on Days 2, 9, 16, and 23 for determination of specific gravity [weight in air/(weight in air-weight in water)] and Haugh units. (Haugh unit=100 Log10 (Albumen height (in mm)+(7.57-(1.7) (Egg mass in grams)^037))). Eggs were collected on Days 0, 7, 14, 21, and 28 for CH analysis. To determine yolk CH, eggs were hard-cooked by immersion in boiling water for 5 min. Yolks were removed and weighed. The entire yolk was blended with a volume of isopropyl alcohol proportional to the yolk weight (10 ml/g of yolk). The cholesterol content of this extract (mg per g wet weight) was determined by an automated procedure based on the Lieberman-Burchard method. One egg was collected on Day 22 for determination of percentage of egg fat using the acid hydrolysis method, and one egg was collected on Day 24 for determination of percentage of egg crude protein by the Kjeldahl N method.
(§3) Data were analyzed by analysis of variance. Linear, quadratic, and cubic contrasts were used to evaluate the treatment effects. Egg production, specific gravity, Haugh units, and CH were measured over time and analyzed by split-plot analyses using hen(trt*rep) as the error term in the model.

[10] = tested on: laying hens; assay: Haugh units of eggs, Example 1; assay type: in vivo, Hyline 36 commercial-type laying hens; conditions: for Haugh units: mean of eggs of Days 2, 9, 16, 23, SEM 1.8
Excerpt: as §1, §2, §3

[11] = tested on: laying hens; assay: Specific gravity of eggs, Example 1; assay type: in vivo, Hyline 36 commercial-type laying hens; conditions: for Specific gravity: mean of eggs of Days 2, 9, 16, 23, SEM .001
Excerpt: as §1, §2, §3

[12] = tested on: laying hens; assay: Percentage of egg fat (acid hydrolysis method), Example 1; assay type: in vivo, Hyline 36 commercial-type laying hens; conditions: for Egg fat: egg of Day 22, SEM .2, chromium quadratic effect P < .10; for Effect on percentage of egg fat: Cr quadratic, P<0.1
Excerpt: as §1, §2, §3

[13] = tested on: laying hens; assay: Percentage of egg crude protein (Kjeldahl N method), Example 1; assay type: in vivo, Hyline 36 commercial-type laying hens; conditions: for Egg Protein: egg of Day 24, SEM .2, chromium quadratic effect P < .02
Excerpt: as §1, §2, §3

[14] = tested on: laying hens; assay: Egg yolk cholesterol (Lieberman-Burchard method), Example 1; assay type: in vivo, Hyline 36 commercial-type laying hens; conditions: for Egg CH (cholesterol): mean of eggs of Days 0, 7, 14, 21, 28, SEM .2
Excerpt: as §1, §2, §3

[15] = tested on: laying hens; assay: Egg production, Example 2 (eight-week trial, hens 28-36 weeks of age); assay type: in vivo, Hyline 36 commercial-type laying hens; conditions: for Egg Production: eight weeks, SEM 2.7
Excerpt: as §1, §2, §3
(§4) The procedures described in Example 1 were followed, except as noted. The trial lasted eight weeks, and the hens were 28-36 weeks of age during the eight weeks of the trial. The treatments used were (1) Basal (B), (2) B+100 ppb Cr, (3) B+200 ppb Cr, (4) B+300 ppb Cr, and (5) B+400 ppb Cr. Only egg production is reported.

[16] = tested on: laying hens; assay: Egg production, Example 3 (eight-week trial, hens 48-56 weeks of age); assay type: in vivo, Hyline 36 commercial-type laying hens; conditions: for Egg Production: eight weeks, SEM 4.3
Excerpt: as §1, §2, §3, §4
The procedures of Example 2 were followed, except that the hens were 48-56 weeks of age during the eight weeks of the trial.

[17] = hens receiving 100 and 200 ppb Cr
[18] = overall, 100-400 ppb Cr, P>0.10

[Cr] [Cr, chromium]
Biological activity in the laying hen [1]: biologically active
Growth rate of turkey poults [2]: improved
Turkey breast tissue [3]: small increase
HDL cholesterol [4]: increases
Serum triglycerides [4]: decreases
Cholesterol (CH) accumulation [5]: decreased
Removal rate of CH already deposited in the aorta [5]: increased

O.O.O.O.O.O.[Cl][Cr]([Cl])[Cl] [CrCl3.6H2 O]
Effect on egg production [6]: no positive effect

O=C(O)c1ccccn1 [picolinic acid, pyridine-2-carboxylic acid]
Growth rates in rats [7]: greater growth rates
Growth rates [8]: faster growth rates
Zinc absorption [8]: did not aid zinc absorption

chromium picolinate
Egg Production ([9]; B + 50 ppb Cr in diet): 79.3%
Egg Production ([9]; B + 100 ppb Cr in diet): 81.1%
Egg Production ([9]; B + 200 ppb Cr in diet): 83.2%
Egg Production ([9]; B + 400 ppb Cr in diet): 76.1%
Egg Production ([9]; B + 800 ppb Cr in diet): 77.7%
Effect on egg production ([9]; at 400 and 800 ppb Cr, Cr cubic, P<0.03): decreased
Optimum dosage of CrPic for egg production ([9]; in the diet, from the experiments of Examples 1-3): 100-200 ppb Cr
Effect on egg production ([9]; supplementing the diet with CrPic, summary statement): incrementally increased in some circumstances
Effect on egg production ([9]; through 200 ppb Cr, Cr cubic, P<0.03): increased
Haugh units ([10]; B + 50 ppb Cr in diet): 82.6
Haugh units ([10]; B + 100 ppb Cr in diet): 84.6
Haugh units ([10]; B + 200 ppb Cr in diet): 82.0
Haugh units ([10]; B + 400 ppb Cr in diet): 85.0
Haugh units ([10]; B + 800 ppb Cr in diet): 79.7
Effect on Haugh units ([10]; P>0.1): not affected
Specific gravity ([11]; B + 50 ppb Cr in diet): 1.085
Specific gravity ([11]; B + 100 ppb Cr in diet): 1.084
Specific gravity ([11]; B + 200 ppb Cr in diet): 1.084
Specific gravity ([11]; B + 400 ppb Cr in diet): 1.084
Specific gravity ([11]; B + 800 ppb Cr in diet): 1.085
Effect on specific gravity ([11]; P>0.1): not affected
Egg fat ([12]; B + 50 ppb Cr in diet): 10.2%
Egg fat ([12]; B + 100 ppb Cr in diet): 10.6%
Egg fat ([12]; B + 200 ppb Cr in diet): 10.8%
Egg fat ([12]; B + 400 ppb Cr in diet): 10.0%
Egg fat ([12]; B + 800 ppb Cr in diet): 9.9%
Effect on percentage of egg fat ([12]; hens receiving 50, 400, and 800 ppb Cr): lower
Effect on percentage of egg fat [12, 17]: higher
Egg Protein ([13]; B + 50 ppb Cr in diet): 12.2%
Egg Protein ([13]; B + 100 ppb Cr in diet): 12.2%
Egg Protein ([13]; B + 200 ppb Cr in diet): 12.2%
Egg Protein ([13]; B + 400 ppb Cr in diet): 12.6%
Egg Protein ([13]; B + 800 ppb Cr in diet): 12.3%
Effect on percentage of egg crude protein ([13]; CrPic supplementation to the diet, Cr quadratic, P<0.02): reduced
Egg CH (cholesterol) ([14]; B + 50 ppb Cr in diet): 12.1 mg/g yolk
Egg CH (cholesterol) ([14]; B + 100 ppb Cr in diet): 11.7 mg/g yolk
Egg CH (cholesterol) ([14]; B + 200 ppb Cr in diet): 11.9 mg/g yolk
Egg CH (cholesterol) ([14]; B + 400 ppb Cr in diet): 12.1 mg/g yolk
Egg CH (cholesterol) ([14]; B + 800 ppb Cr in diet): 11.9 mg/g yolk
Effect on egg CH ([14]; CrPic supplementation overall, P>0.1): not affected
Effect on egg CH by Day 28 ([14]; by Day 28 of the trial, Cr quadratic, P<0.05): reduced
Effect on egg CH [14, 17]: tended to be lower
Egg Production ([15]; B + 100 ppb Cr in diet): 85.2%
Egg Production ([15]; B + 200 ppb Cr in diet): 82.3%
Egg Production ([15]; B + 300 ppb Cr in diet): 84.5%
Egg Production ([15]; B + 400 ppb Cr in diet): 81.6%
Effect on egg production ([15]; at 100 ppb Cr): numerical increase in egg production
Effect on egg production [15, 18]: not observed to affect egg production
Egg Production ([16]; B + 100 ppb Cr in diet): 83.0%
Egg Production ([16]; B + 200 ppb Cr in diet): 82.1%
Egg Production ([16]; B + 300 ppb Cr in diet): 74.8%
Egg Production ([16]; B + 400 ppb Cr in diet): 77.1%
Effect on egg production ([16]; at 100 ppb Cr): numerical increase in egg production
Effect on egg production [16, 18]: not observed to affect egg production
